Measured values as given in patent publication US7087658B2, “Water-soluble coating agents bearing initiator groups” (SurModics, Inc., priority 1999, dated 2006).

How the values were obtained:
[1] = tested on: Beta-Thromboglobulin (β-TG) released from the α-granules of platelets; assay: Beta-Thromboglobulin assay; format: cell-based, human; details: coated polyethylene; PRP, one hour at room temperature; enzyme immunoassay
Experimental: The surface-modified materials were incubated with PRP and the plasma was assayed for the Beta-Thromboglobulin (β-TG) released from the α-granules due to activation of the platelets. Blood was collected fresh from human volunteers into 3.8% (v/v) sodium citrate using 9:1 ratio of blood to anticoagulant. The blood was centrifuged at 1200 rpm for 15 minutes to separate PRP from blood. The PRP was collected and kept at room temperature until used (less than 1 h). The test samples (½-inch circles) were placed in a 6-well plate, 1 sample per well. The PRP solution was added onto the top of the samples until the entire surface of the sample was covered, and the samples incubated one hour at room temperature with no agitation. Control samples of plasma, for initial β-TG levels, were taken prior to incubation.
After incubation with the samples, prostaglandin E1 (Sigma, product no. P5515) was added to each sample and the plasma was assayed with an enzyme immunoassay kit (Asserachrom American Bioproduct, product no. 0250) for the amount of β-TG released.

platelets = assay: Platelet attachment and activation from platelet rich plasma (SEM); format: cell-based, human; details: coated polyethylene (PE); for Platelet activation, spreading and aggregation: SEM
Experimental: The surface-modified materials were incubated with platelet rich plasma (PRP), observed with a scanning electron microscope and photographed to determine the influence of surface chemistry on platelet attachment and activation.
Blood was collected fresh from human volunteers into 3.8% (v/v) sodium citrate solution using 9:1 ratio of blood to anticoagulant. The blood was centrifuged at 1200 rpm for 15 minutes to separate PRP from blood. The PRP was collected and kept at room temperature until used (less than 1 hour).
The test samples (½-inch circles) were placed in a 6-well plate, 1 sample per well. The PRP solution was added onto the top of the samples until the entire surface of the sample was covered, and the samples were incubated one hour at room temperature with no agitation. To quantify the platelet solution, a sample of the PRP was taken and diluted 1:100 with 1% (v/v) Oxalate Ammonium. A capillary tube was used to transfer a small amount of solution to a hemacytometer, and the sample was incubated in a covered petri dish for 30 minutes at room temperature for the platelets to settle.
The platelets were counted under a phase contrast microscope and determined to be approximately 50–100×10^9 platelets/L. After incubation, the PRP was removed carefully by aspiration and 3 mls of Tyrode's buffer (138-mM NaCl, 2.9-mM KCl, 12-mM sodium bicarbonate, pH 7.4) gently added to each well. The plates were agitated slightly on an orbital shaker for 15 minutes; the solution was changed and the wash repeated. The wash solution was aspirated and 2.0 ml of Karnovsky's fixative (25-mls formaldehyde, 5-mls 25% glutaraldehyde, 20-mls of a solution of 23% NaH2PO4—H2O, 77% NaHPO4 anhydrous) were added to each well. The plate was wrapped with parafilm and incubated overnight at room temperature with slight agitation.
The fixative was aspirated off and the samples were washed 3 times each with pure water, 15 minutes each. […] The platelets were counted and judged by degree of activation and morphology.

[2] = tested on: intrinsic and common pathways of coagulation; assay: Partial thromboplastin time (PTT) test; format: biochemical
Experimental: A useful test in determining the hemocompatibility of a reagent is the partial thromboplastin time (PTT) test. The PTT is a test of the intrinsic (factors VIII, IX, XI, and XII) and common (fibrinogen, prothrombin, factors V and X) pathways of coagulation. A mixture of plasma and phospholipid platelet substitute (rabbit brain cephalin) is recalcified and the time required for the appearance of fibrin strands measured.
The PTT was tested to determine whether Compound I or Compound II have the ability to extend the control PTT. A test tube of rabbit brain cephalin (Sigma #RBC) in 0.85% NaCl and a test tube of 0.02 M CaCl2 was brought to 37° C. in a water bath. Dade Ci-trol coagulation control lyophilized plasma (Dade International, Inc., product no. 34224-10) was reconstituted in sterile deionized water. In 10×75 mm glass test tubes, 100 μl reconstituted plasma and 100 μl RBC were mixed and incubated at 37° C. in a water bath for 5 minutes. Next, 50 μl of sample (deionized water, a photocrosslinkable polyvinylpyrrolidone (available from SurModics, Inc., product no. PVO5), or Compound I or II) was added and mixed. While simultaneously starting a stop watch, 100 μl of 0.02 M CaCl2 was added to initiate the clotting cascade. After 40 seconds had passed, the test tubes were shaken lightly, observed for fibrin formation, and the number of seconds was recorded.
All samples were tested in duplicate. The appropriate control PTT, depending upon what solvent in which the reagent was dissolved, was subtracted from the average PTT for the reagent to give the time the control PTT was extended.

[3] = final concentration 0.7 mg/ml, solvent H2O
[4] = final concentration 1.43 mg/ml, solvent H2O
[5] = final concentration 0.7 mg/ml, solvent 50% IPA
[6] = final concentration 1.29 mg/ml, solvent 50% IPA

| SMILES | β-TG release [1] | Platelet activation, spreading and aggregation (platelets) | Morphology of platelets attached to modified surfaces (platelets; SEM photographs) | Average PTT [2, 3] [s] | Formed Clot [2, 3] | Time Extended Beyond Control PTT ([2]; final concentration 0.7 mg/ml, solvent H2O, DI H2O control subtracted) [s] | Average PTT [2, 4] [s] | Formed Clot [2, 4] | Time Extended Beyond Control PTT ([2]; final concentration 1.43 mg/ml, solvent H2O, DI H2O control subtracted) [s] | Average PTT [2, 5] [s] | Formed Clot [2, 5] | Time Extended Beyond Control PTT ([2]; final concentration 0.7 mg/ml, solvent 50% IPA, 50% IPA control subtracted) [s] | Average PTT [2, 6] [s] | Formed Clot [2, 6] | Time Extended Beyond Control PTT ([2]; final concentration 1.29 mg/ml, solvent 50% IPA, 50% IPA control subtracted) [s] | Extension of the 50% IPA control PTT ([2]; higher of the two final concentrations tested, 50% IPA control) [h] | Extension of PTT from water control ([2]; higher of the two final concentrations tested, water control) [h] |
| --- | --- | --- | --- | --- | --- | --- | --- | --- | --- | --- | --- | --- | --- | --- | --- | --- | --- |
| O=C(c1ccccc1)c1ccc(COc2cc(S(=O)(=O)[O-])cc(S(=O)(=O)[O-])c2OCc2ccc(C(=O)c3ccccc3)cc2)cc1.[K+].[K+] [Compound I, 4,5-bis(4-benzoylphenylmethyleneoxy) benzene-1,3-disulfonic acid disodium salt] | lower levels of β-TG release than the uncoated and PVO5 controls | less activation and spreading | Full coverage, many aggregates, little | 117 | yes | 64 | >3600 | no | >3600 |  |  |  |  |  |  |  |  |
| O=C(c1ccccc1)c1ccc(COc2cc(S(=O)(=O)[O-])c(OCc3ccc(C(=O)c4ccccc4)cc3)cc2S(=O)(=O)[O-])cc1.[K+].[K+] [Compound II, 2,5-bis(4-benzoylphenylmethyleneoxy) benzene-1,4-disulfonic acid dipotassium salt] |  | some spreading pseudopodia, but little or no aggregating |  |  |  |  |  |  |  | 134 | yes | 56 | 3600 | yes | 3522 | 1 | ≥ 1 |
